Test results taken from patent US20260083865A1, “PROSTATE SPECIFIC MEMBRANE ANTIGEN (PSMA) LIGANDS AND USE THEREOF” (priority 2022, published 2026).
Read-outs that look alike come from different tables or passages of the source. Numbered stars: 1 amine (or outer) side, 2 acyl side, 3 side chain; on linkers, the order of the positions; unused ones are H or OH. Bridge positions count the residues as written; N and C are the ends. Square brackets hold non-standard residues; d marks the D form. Side chains are listed from the residue outwards. Peptide text beside a SMILES is read from it. * marks the point of attachment. Acetyl(1-DOTA-4-piperidyl) = O=C(O)CN1CCN(CC(=O)O)CCN(CC(=O)N2CCC(CC(=O)*)CC2)CCN(CC(=O)O)CC1; X3 = O=C(O)CN1CCN(CC(=O)O)CCN(CC(=O)NCCCOCCOCCOCCCN*)CCN(CC(=O)O)CC1; X2 = O=C(O)CN1CCN(CC(=O)O)CCN([C@H](CCC(=O)*)C(=O)O)CCN(CC(=O)O)CC1; DOTA = O=C(O)CN1CCN(CC(=O)O)CCN(CC(=O)*)CCN(CC(=O)O)CC1; Phe(3-Cl) = N[C@@H](Cc1cccc(Cl)c1)C(=O)O; Phe(4-Cl) = N[C@@H](Cc1ccc(Cl)cc1)C(=O)O; Ethylenediamine = C(CN[*:2])N[*:1]; X1 = O=C(CC1CCN([*:1])CC1)[*:2]; Cit = NC(=O)NCCC[C@H](N)C(=O)O; Suc = O=C(CCC(=O)[*:2])[*:1]; Tle = CC(C)(C)[C@H](N)C(=O)O; Propanoyl(3-OH) = O=C(CCO)*; 4Amb = NCc1ccc(C(=O)O)cc1; Hexanoyl = CCCCCC(=O)*; AEEA = NCCOCCOCC(=O)O; Aib = CC(C)(N)C(=O)O

Assays:
[1] = molecular target: T1, Fc-fusion protein of human PSMA (hPSMA-Fc) (Homo sapiens, UniProt Q04609); experiment: Surface plasmon resonance assay (Biacore T200, single cycle kinetic); format: binding; details: hPSMA-Fc, 25° C., read-out: pKD CAT (converted)
T1 construct: purchased Acro Biosystems PSA-H5264
Outline: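 KD, expressed as pKD, came from 1:1 Langmuir fits of reference- and buffer-blank-subtracted SPR data. The runs were single-cycle kinetics at 25° C in HBST/0.1% DMSO over human PSMA-Fc, captured to ~1000 RU on a peptide-coated CM5 surface and regenerated with 10 mM glycine pH 1.5.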

[2] = molecular target: T2, PSMA-expressing C4-2 cells (Homo sapiens, UniProt Q04609); experiment: FACS binding assay (competition with 50 nM PSM-0183); details: FACS binding, read-out: pIC50 [C4-2] CAT (converted)
T2 construct: PSMA-expressing C4-2 cells (ATCC, Cat. No. CRL-3314) were cultured in RPMI-1640; host or cells: C4-2 cells
Outline: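 Competition format: fluorescent tracer PSM-0183 (50 nM) displaced from PSMA on C4-2 cells by a test compound titration over 1 h at 4 °C. Bound tracer was quantified as flow-cytometric AF488 median fluorescence after washing. Four-parameter logistic fits of MFI data gave IC50 and pIC50.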

PC3-PIP tumor model = system: PC3-PIP tumor model; parameters: species or system mice; details: mouse, in vivo
From the text: Radioactively labeled compounds can be detected by imaging methods such as SPECT and PET. Furthermore, the data acquired by such techniques can be confirmed by direct measurement of radioactivity contained in the individual organs prepared from an animal injected with a radioactively labeled compound of the disclosure. Thus, the biodistribution (the measurement of radioactivity in individual organs) of a radioactively labeled compound can be determined and analyzed. […] All animal experiments were conducted in compliance with the German animal protection laws. Male swiss or NMRI nude mice (6-8 weeks old, Janvier Labs, France) were inoculated with 5×10^6 PC3-PIP cells in the right shoulder. For selected compounds an additional model was used, here male NMRI nude mice (6-8 weeks old, Janvier Labs, France) were inoculated with 5×10^6 or/1×10^7 C4-2 cells in the right shoulder. When tumors reached an appropriate size, the mice received ˜30 MBq ^111In-labeled compounds of the disclosure (diluted to 100 μL with PBS) administered intravenously via the tail vein. Images were obtained on a NanoSPECT/computed tomography system (Mediso Medical Imaging Systems, Budapest, Hungary) using exemplarily the following acquisition and reconstruction parameters (Table 10). [table] Imaging data were saved as DICOM files and analysed using VivoQuant™ software (Invicro, Boston, USA). In brief, regions of interest (ROIs) were drawn based on computed tomography images for the relevant organs and tissue regions such as heart (estimate of blood pool, bps), kidney, and tumor. The resulting numeric data expressed as a percentage of injected dose per gram of tissue (% ID/g) are presented in FIGS. 3(a)-3(ii) for the PC3-PIP model and FIGS. 4(a)-4(r) for the C4-2 model. Bars show mean % ID/g values of two to three animals per time point. Error bars indicate the value range (minimum and maximum values).

[3] = SPR, single cycle kinetic, category
[4] = C4-2 cells, competition with 50 nM PSM-0183, category
[5] = PSMA-expressing C4-2 cells, pIC50 category

T2 sequence (Q04609 whole entry): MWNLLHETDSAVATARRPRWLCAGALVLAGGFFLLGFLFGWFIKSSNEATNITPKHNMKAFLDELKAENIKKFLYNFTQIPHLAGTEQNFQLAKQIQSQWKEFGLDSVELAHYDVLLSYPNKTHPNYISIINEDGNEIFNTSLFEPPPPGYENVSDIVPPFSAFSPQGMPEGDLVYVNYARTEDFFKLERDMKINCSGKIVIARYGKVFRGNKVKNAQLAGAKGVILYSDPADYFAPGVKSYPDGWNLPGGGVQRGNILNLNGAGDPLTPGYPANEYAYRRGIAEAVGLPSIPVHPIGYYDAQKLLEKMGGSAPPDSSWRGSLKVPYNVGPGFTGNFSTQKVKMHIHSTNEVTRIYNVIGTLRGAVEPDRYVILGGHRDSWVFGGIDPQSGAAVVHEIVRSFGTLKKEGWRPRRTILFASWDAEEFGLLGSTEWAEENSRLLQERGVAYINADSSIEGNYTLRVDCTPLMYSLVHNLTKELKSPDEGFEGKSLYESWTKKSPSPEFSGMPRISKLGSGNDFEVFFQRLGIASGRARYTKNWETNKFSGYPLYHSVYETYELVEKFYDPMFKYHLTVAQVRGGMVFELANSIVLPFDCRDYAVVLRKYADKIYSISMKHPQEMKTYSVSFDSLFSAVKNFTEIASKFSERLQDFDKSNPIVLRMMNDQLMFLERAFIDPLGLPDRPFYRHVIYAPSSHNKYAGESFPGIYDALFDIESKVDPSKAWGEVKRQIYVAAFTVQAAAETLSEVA
T1 sequence (Q04609 44-750 limits assumed): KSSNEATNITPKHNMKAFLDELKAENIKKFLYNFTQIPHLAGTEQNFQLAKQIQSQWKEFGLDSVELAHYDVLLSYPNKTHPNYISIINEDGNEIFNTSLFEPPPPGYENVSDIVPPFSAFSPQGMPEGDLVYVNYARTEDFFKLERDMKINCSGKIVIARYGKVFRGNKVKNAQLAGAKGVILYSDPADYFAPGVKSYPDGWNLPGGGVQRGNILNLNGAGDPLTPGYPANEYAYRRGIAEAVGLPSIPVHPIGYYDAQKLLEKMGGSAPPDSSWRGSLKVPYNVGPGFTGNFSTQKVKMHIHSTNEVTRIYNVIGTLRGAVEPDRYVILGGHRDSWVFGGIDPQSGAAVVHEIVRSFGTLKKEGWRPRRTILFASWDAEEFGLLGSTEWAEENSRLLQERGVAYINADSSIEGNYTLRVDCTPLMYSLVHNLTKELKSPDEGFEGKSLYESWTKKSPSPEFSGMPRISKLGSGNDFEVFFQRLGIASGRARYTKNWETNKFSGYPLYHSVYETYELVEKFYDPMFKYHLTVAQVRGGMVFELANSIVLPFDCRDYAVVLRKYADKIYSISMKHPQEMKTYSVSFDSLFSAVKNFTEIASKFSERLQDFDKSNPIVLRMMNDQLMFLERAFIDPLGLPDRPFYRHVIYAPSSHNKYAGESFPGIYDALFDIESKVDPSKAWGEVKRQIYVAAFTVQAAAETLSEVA

C[C@@H](O)[C@H](NC(=O)CN1CCN(CC(=O)O)CCN(CC(=O)O)CCN(CC(=O)O)CC1)C(=O)NC(C)(C)C(=O)N[C@@H](Cc1ccccc1)C(=O)N[C@H]1CSSC[C@@H](C(=O)N[C@H](C(=O)NCCN)C(C)(C)C)NC(=O)[C@H](CC(N)=O)NC(=O)C(C)(C)NC(=O)[C@H](CCCNC(=N)N)NC(=O)[C@H](CCCCN)NC1=O [PSM-0199, DOTA-Thr-Aib-Phe-[Cys-Lys-Arg-Aib-Asn-Cys]-Tle-en] ({DOTA}-T[Aib]FCKR[Aib]NC[Tle]-Ethylenediamine; disulfide 4-9)
Kd [1, 3]: < 12.6 nM
IC50 [2, 4]: < 200 nM
AUC ratio [T/K] (PC3-PIP tumor model): 0.33
Tumor AUC (PC3-PIP tumor model): 170 % ID/g*h

C[C@@H](O)[C@H](NC(=O)[C@@H](NC(=O)[C@@H]1CSSC[C@H](NC(=O)[C@H](Cc2ccccc2)NC(=O)C(C)(C)NC(=O)[C@@H](NC(=O)CC2CCN(C(=O)CC[C@H](C(=O)O)N3CCN(CC(=O)O)CCN(CC(=O)O)CCN(CC(=O)O)CC3)CC2)[C@@H](C)O)C(=O)N[C@@H](CCCCN)C(=O)N[C@@H](CCCNC(=N)N)C(=O)NC(C)(C)C(=O)N[C@@H](CC(N)=O)C(=O)N1)C(C)(C)C)C(N)=O [PSM-0218, DOTAGA-Cmp-Thr-Aib-Phe-[Cys-Lys-Arg-Aib-Asn-Cys]-Tle-Thr-NH2] (X2-[X1]T[Aib]FCKR[Aib]NC[Tle]T-NH2; disulfide 5-10)
Kd [1, 3]: < 12.6 nM
IC50 [2, 4]: < 200 nM
AUC ratio [T/K] (PC3-PIP tumor model): 1.2
Tumor AUC (PC3-PIP tumor model): 150 % ID/g*h

C[C@@H](O)[C@H](NC(=O)[C@@H](NC(=O)[C@@H]1CSSC[C@H](NC(=O)[C@H](Cc2ccccc2)NC(=O)C(C)(C)NC(=O)[C@@H](NC(=O)CCC(=O)NCCCOCCOCCOCCCNC(=O)CN2CCN(CC(=O)O)CCN(CC(=O)O)CCN(CC(=O)O)CC2)[C@@H](C)O)C(=O)N[C@@H](CCCCN)C(=O)N[C@@H](CCCNC(N)=O)C(=O)NC(C)(C)C(=O)N[C@@H](CC(N)=O)C(=O)N1)C(C)(C)C)C(N)=O [PSM-0234, DOTA-Ttds-Thr-Aib-Phe-[Cys-Lys-Cit-Aib-Asn-Cys]-Tle-Thr-NH2] ({X3-Suc}-T[Aib]FCK[Cit][Aib]NC[Tle]T-NH2; disulfide 4-9)
Kd [1, 3]: 12.6 to 126 nM
IC50 [2, 4]: 200 to 1260 nM
AUC ratio [T/K] (PC3-PIP tumor model): 0.64
Tumor AUC (PC3-PIP tumor model): 62 % ID/g*h

C[C@@H]1NC(=O)[C@H](CCCNC(=N)N)NC(=O)[C@H](CCCCN)NC(=O)[C@@H](NC(=O)[C@H](Cc2ccccc2)NC(=O)C(C)(C)NC(=O)[C@@H](NC(=O)CCC(=O)NCCCOCCOCCOCCCNC(=O)CN2CCN(CC(=O)O)CCN(CC(=O)O)CCN(CC(=O)O)CC2)[C@@H](C)O)CSSC[C@@H](C(=O)N[C@H](C(=O)N[C@H](C(N)=O)[C@@H](C)O)C(C)(C)C)NC(=O)[C@H](CC(N)=O)NC1=O [PSM-0237, DOTA-Ttds-Thr-Aib-Phe-[Cys-Lys-Arg-Ala-Asn-Cys]-Tle-Thr-NH2] ({X3-Suc}-T[Aib]FCKRANC[Tle]T-NH2; disulfide 4-9)
Kd [1, 3]: < 12.6 nM
IC50 [2, 4]: < 200 nM
AUC ratio [T/K] (PC3-PIP tumor model): 0.44
Tumor AUC (PC3-PIP tumor model): 180 % ID/g*h

CCCCCC(=O)N[C@H](C(=O)NC(C)(C)C(=O)N[C@@H](Cc1ccc(Cl)cc1)C(=O)N[C@H]1CSSC[C@@H](C(=O)N[C@H](C(=O)N[C@H](C(=O)N[C@H](CCCCNC(=O)CC2CCN(C(=O)CN3CCN(CC(=O)O)CCN(CC(=O)O)CCN(CC(=O)O)CC3)CC2)C(N)=O)[C@@H](C)O)C(C)(C)C)NC(=O)[C@H](CC(N)=O)NC(=O)C(C)(C)NC(=O)[C@H](CCCNC(N)=O)NC(=O)[C@H](CCCCN)NC1=O)[C@@H](C)O [PSM-0239, Hex-Thr-Aib-Pcf-[Cys-Lys-Cit-Aib-Asn-Cys]-Tle-Thr-lys(DOTA-Cmp)-NH2] (Hexanoyl-T[Aib][Phe(4-Cl)]CK[Cit][Aib]NC[Tle]T[dK](Acetyl(1-DOTA-4-piperidyl))-NH2; disulfide 4-9)
Kd [1, 3]: < 12.6 nM
IC50 [2, 4]: < 200 nM
AUC ratio [T/K] (PC3-PIP tumor model): 1.2
Tumor AUC (PC3-PIP tumor model): 210 % ID/g*h

C[C@@H](O)[C@H](NC(=O)CC1CCN(C(=O)CN2CCN(CC(=O)O)CCN(CC(=O)O)CCN(CC(=O)O)CC2)CC1)C(=O)NC(C)(C)C(=O)N[C@@H](Cc1ccccc1)C(=O)N[C@H]1CSSC[C@@H](C(=O)N[C@H](C(=O)NCCN)C(C)(C)C)NC(=O)[C@H](CC(N)=O)NC(=O)C(C)(C)NC(=O)[C@H](CCCNC(=N)N)NC(=O)[C@H](CCCCN)NC1=O [PSM-0241, DOTA-Cmp-Thr-Aib-Phe-[Cys-Lys-Arg-Aib-Asn-Cys]-Tle-en] ({DOTA}-[X1]T[Aib]FCKR[Aib]NC[Tle]-Ethylenediamine; disulfide 5-10)
Kd [1, 3]: < 12.6 nM
IC50 [2, 4]: < 200 nM
AUC ratio [T/K] (PC3-PIP tumor model): 0.54
Tumor AUC (PC3-PIP tumor model): 300 % ID/g*h

CC(=O)N[C@H](C(=O)NC(C)(C)C(=O)N[C@@H](Cc1cccc(Cl)c1)C(=O)N[C@H]1CSSC[C@@H](C(=O)N[C@H](C(=O)N[C@H](C(N)=O)[C@@H](C)O)C(C)(C)C)NC(=O)[C@H](CC(N)=O)NC(=O)[C@H](CCCCNC(=O)COCCOCCNC(=O)CN2CCN(CC(=O)O)CCN(CC(=O)O)CCN(CC(=O)O)CC2)NC(=O)[C@H](CCCNC(=N)N)NC(=O)[C@H](CCCCN)NC1=O)[C@@H](C)O [PSM-0243, Ac-Thr-Aib-Mcf-[Cys-Lys-Arg-Lys(DOTA-O2Oc)-Asn-Cys]-Tle-Thr-NH2] (Ac-T[Aib][Phe(3-Cl)]CKRK([AEEA-DOTA])NC[Tle]T-NH2; disulfide 4-9)
Kd [1, 3]: < 12.6 nM
IC50 [2, 4]: < 200 nM
AUC ratio [T/K] (PC3-PIP tumor model): 0.53
Tumor AUC (PC3-PIP tumor model): 130 % ID/g*h

C[C@@H](O)[C@H](NC(=O)[C@@H](NC(=O)[C@@H]1CSSC[C@H](NC(=O)[C@H](Cc2ccc(Cl)cc2)NC(=O)C(C)(C)NC(=O)CCO)C(=O)N[C@@H](CCCCN)C(=O)N[C@@H](CCCNC(=N)N)C(=O)NC(C)(C)C(=O)N[C@@H](CC(N)=O)C(=O)N1)C(C)(C)C)C(=O)N[C@H](CCCCNC(=O)CN1CCN(CC(=O)O)CCN(CC(=O)O)CCN(CC(=O)O)CC1)C(N)=O [PSM-0267, HPA-Aib-Pcf-[Cys-Lys-Arg-Aib-Asn-Cys]-Tle-Thr-lys(DOTA)-NH2] ({Propanoyl(3-OH)}-[Aib][Phe(4-Cl)]CKR[Aib]NC[Tle]T[dK](DOTA)-NH2; disulfide 3-8)
Kd [1, 3]: < 12.6 nM
IC50 [2, 4]: < 200 nM
AUC ratio [T/K] (PC3-PIP tumor model): 1.2
Tumor AUC (PC3-PIP tumor model): 170 % ID/g*h

CC(=O)N[C@H](C(=O)NC(C)(C)C(=O)N[C@@H](Cc1ccc(Cl)cc1)C(=O)N[C@H]1CSSC[C@@H](C(=O)N[C@H](C(=O)NCCNC(=O)CN2CCN(CC(=O)O)CCN(CC(=O)O)CCN(CC(=O)O)CC2)C(C)(C)C)NC(=O)[C@H](CC(N)=O)NC(=O)C(C)(C)NC(=O)[C@H](CCCNC(=N)N)NC(=O)[C@H](CCCCN)NC1=O)[C@@H](C)O [PSM-0269, Ac-Thr-Aib-Pcf-[Cys-Lys-Arg-Aib-Asn-Cys]-Tle-en-DOTA] (Ac-T[Aib][Phe(4-Cl)]CKR[Aib]NC[Tle]-{Ethylenediamine-DOTA}; disulfide 4-9)
Kd ([1]; PSMA SPR assay, pKD category): < 12.6 nM
IC50 [2, 5]: < 200 nM
AUC ratio [T/K] (PC3-PIP tumor model): 0.87
Tumor AUC (PC3-PIP tumor model): 150 % ID/g*h

CC(C)(NC(=O)c1ccc(CNC(=O)CN2CCN(CC(=O)O)CCN(CC(=O)O)CCN(CC(=O)O)CC2)cc1)C(=O)N[C@@H](Cc1ccc(Cl)cc1)C(=O)N[C@H]1CSSC[C@@H](C(=O)N[C@H](C(=O)NCCN)C(C)(C)C)NC(=O)[C@H](CC(N)=O)NC(=O)C(C)(C)NC(=O)[C@H](CCCNC(=N)N)NC(=O)[C@H](CCCCN)NC1=O [PSM-0273, DOTA-Pamb-Aib-Pcf-[Cys-Lys-Arg-Aib-Asn-Cys]-Tle-en] ({DOTA-4Amb}-[Aib][Phe(4-Cl)]CKR[Aib]NC[Tle]-Ethylenediamine; disulfide 3-8)
Kd ([1]; PSMA SPR assay, pKD category): < 12.6 nM
IC50 [2, 5]: < 200 nM
AUC ratio [T/K] (PC3-PIP tumor model): 0.21
Tumor AUC (PC3-PIP tumor model): 110 % ID/g*h
